SMILES strings stand for the structures. pIC50: −log10 of the molar value. Where two headings read alike, the source gives them in different places.

Data set [1] relates to Ehrlich solid tumor. Kind of data set: Test 2: Anti-tumor test against Ehrlich solid tumor. The class given is in vivo, ddY/SLC mice. The conditions noted are these: Mus musculus, Ehrlich, ip, 504 h, read-out: Growth Inhibition Rate. As for the experimental part: Anti-tumor test against Ehrlich solid tumor
Ehrlich tumor cells, 2×10^6, on Day 7 after intraperitoneal transplantation to ddY/SLC mice, were subcutaneously transplanted in the left abdomen of ddY/SLC mice (5week age, male)--10 to a group. The active component was intraperitoneally administered in a definite dose 24 hours after the transplantation. (administration: once per one day; 1 through 9 days)
(§1) Growth inhibition rate (%)=(C-T)/C×100
T: mean tumor weight in the active component-administered group
c: mean tumor weight in the control group

The test system of data set [2] is Ehrlich solid tumor. Nature of the data set: Test 5: Antitumor test against Ehrlich solid tumor. The following applies: intraperitoneal (1 to 9 days), day 21. The format is in vivo, ddY/SLC mice. On the procedure: Antitumor test against Ehrlich solid tumor
Ehrlich tumor cells, 3×10^6, on Day 6 after intraperitoneal transplantation to ddY/SLC mice, were subcutaneously transplanted in the left abdomen of ddY/SLC mice (5 week age, male)--10 mice to a group (37 mice for the control group). The active component was intraperitoneally administered in a definite dose 24 hours after the transplantation, according to the scheduled shown in Table 4. The tumor growth inhibition was assessed by measuring the weight of each tumor on the 21th day after transplantation, and determining the tumor growth inhibition rate of the active component-administered group to the control group, according to the following equation.
as §1
(§2) T: mean tumor weight in the active-component-administered group
(§3) C: mean tumor weight on the control group

In data set [3] the test system is mouse leukemia L1210 cells. Nature of the data set: Effectiveness against mouse leukemia L1210 cells (in vitro test), cytotoxicity by trypan blue dye exclusion. The class given is cell-based. The conditions noted are these: Mus musculus, read-out: IC50 (mean dose producing 50%-killing of tumor cells). On the procedure: Effectiveness against mouse leukemia L1210 cells (in vitro test)
A suspension of cells in culture medium was transferred into wells in a microplate in an amount of 1×10^5 L1210-cells/well. Test sample diluted with a culture medium was added to the suspension in each well, and the mixture was incubated on the medium at 37° C. for 3 days in an atmosphere of air containing 5% carbon dioxide.
Thereafter, the incubated cells were recovered from the microplate and the number of live cells was counted by the dye exclusion test using a 0.5% solution of trypan blue and by using a hemocytometer.

A short description of data set [4]: Toxicity test (acute toxicity). The format is in vivo. The following applies: mouse, in vivo, male ddY mice. As for the experimental part:
(§4) The active component (the Compound of Example 45) was orally administered to ddY mice (mean body weight of 30 g, male). […] Accordingly, the acute toxicity of the Compound is greater than 1,600 mg/kg (oral administration).
(§5) Accordingly, the acute toxicity of the Compound in the case of intraperitoneal administration is greater than 800 mg/kg.

For a further data set, the system named is ddY mice. Kind of data set: Toxicity test (acute toxicity). The conditions noted are these: intraperitoneal, up to a dose of 800 mg/kg. The format is in vivo. On the procedure: as §4, §5
The test system of data set [5] is mouse mammalian MM-46 tumor. Kind of data set: Test 3: Test against mouse mammalian MM-46 tumor. The class given is in vivo, C3H/He/SLC mice. On the procedure: Test against mouse mammalian MM-46 tumor
MM-46 tumor cells, 1×10^6, on day 6 after intraperitonal transplantation to C3 H/He/SLC mice, were intraperitoneally transplanted to C3H/He/SlC mice (6 week age, male)--10 mice to a group. The active component was orally administered in a definite dose 24 hours after the transplantation according to the schedule shown in Table 2. The tumor growth inhibition was evaluated as the percentage of the median survival day of the administered group versus that of the control group, according to the following equation.
T: median survival day of the administered group
C: median survival day of the control group

In another data set the test system is mouse M5076 solid tumor. Kind of data set: Test 4: Anti-tumor test against mouse M5076 solid tumor. The class given is in vivo, BDF1/SLC mice. The following applies: p.o. (1-9 days), day 14. As for the experimental part: Anti-tumor test against mouse M5076 solid tumor
M5076 Tumor cells, 1×10^6, on day 14 after intraperitoneal transplantation to C57BL16/cRJ mice, were subcutaneously transplanted to the left abdomen of BDF1/SLC mice (8 week age, male)--10 mice to a group (20 mice for the control group). The active component was orally administered in a definite dose 24 hours after the transplantation according to the schedule shown in Table 3. The tumor growth inhibition was assessed by measuring the weight of each tumor on days 14 after the transplantation, and determining the tumor growth inhibition rate of the active component-administered group to the control group, according to the following equation.
as §1, §2, §3

[6] abbreviates: 72 h, L1210 cells, 3 days, 37° C.
[7] abbreviates: i.p., days 1 through 9, tumor weight day 21.

As a reminder, the pIC50 is the IC50 on a negative log10 scale, so that one unit is a factor of ten. For `O=c1[nH]cc(F)c(=O)[nH]1` [5-Fluorouracil, reference compound], the inhibition in vivo at 25 mg/kg in the data set on Ehrlich solid tumor [1] came to 61%. Further, in the data set on Ehrlich solid tumor [2] (12.5 mg/kg), the “Growth Inhibition Rate” value came to 36.4% and the “Weight of Tumor” value was determined as 2.55 ± 1.21 g. For the same compound, in the data set on Ehrlich solid tumor [2] (25 mg/kg), the “Growth Inhibition Rate” value turned out to be 45.6% and the “Weight of Tumor” value stood at 2.18 ± 0.96 g. The pIC50 in data set [3] (L1210, 72 h) is 6.39.
As a reminder, the LD50 is the dose at which mortality reaches 50%. Low values mean a more toxic substance, high ones a less toxic substance. As to `CC(C)(CCCCOc1ccc(OCCCCCn2ccnc2)cc1)C(=O)O` [Example 45, 6-[p-[5-(1-imidazolyl)pentyloxy]phenoxy]-2,2-dimethylhexanoic acid], the LD50 in data set [4] (ip, intraperitoneal administration) is over 800 mg/kg; in data set [4] (oral administration), over 1600 mg/kg. For the same compound, the death entry in the data set with ddY mice is on record as “no example of death was noted”. Besides, the “Median Survival Day” value in data set [5] (100 mg/kg, p.o. (1-6 days)) is 8.0 days; in data set [5] (200 mg/kg, p.o. (1-6 days)), 8.0 days; in data set [5] (400 mg/kg, p.o. (1-6 days)) it was 8.0 days; in data set [5] (800 mg/kg, p.o. (1-8 days)), 10.0 days. Further, the “No. of 20-day Survivors” value in data set [5] (100 mg/kg, p.o. (1-6 days)) is on record as 0/10; in data set [5] (200 mg/kg, p.o. (1-6 days)) it was 0/10; in data set [5] (400 mg/kg, p.o. (1-6 days)) it was 0/10; in data set [5] (800 mg/kg, p.o. (1-8 days)), 0/10. The “T/C (median survival)” value was determined as 114.3% in data set [5] (100 mg/kg, p.o. (1-6 days)); 114.3% in data set [5] (200 mg/kg, p.o. (1-6 days)); 114.3% in data set [5] (400 mg/kg, p.o. (1-6 days)); 142.9% in data set [5] (800 mg/kg, p.o. (1-8 days)). For the same compound, the “Growth Inhibition Rate” value is 13.1% with mouse M5076 solid tumor (100 mg/kg); 19.7% in the data set on mouse M5076 solid tumor (200 mg/kg); 11.5% with mouse M5076 solid tumor (400 mg/kg); 23.0% with mouse M5076 solid tumor (800 mg/kg); 29.9% in the data set on Ehrlich solid tumor [2] (50 mg/kg); 49.1% in the data set with Ehrlich solid tumor [2] (100 mg/kg). The “Growth Inhibition Rate” value with Ehrlich solid tumor [2] (200 mg/kg) turned out to be 63.6%; in the data set with Ehrlich solid tumor [2] (400 mg/kg), 57.6%. In addition, the “Weight of Tumor” value is reported as 0.53 ± 0.09 g with mouse M5076 solid tumor (100 mg/kg); 0.49 ± 0.14 g in the data set on mouse M5076 solid tumor (200 mg/kg); 0.54 ± 0.12 g in the data set with mouse M5076 solid tumor (400 mg/kg); 0.47 ± 0.09 g with mouse M5076 solid tumor (800 mg/kg); 2.81 ± 1.55 g in the data set on Ehrlich solid tumor [2] (50 mg/kg); 2.04 ± 1.26 g in the data set on Ehrlich solid tumor [2] (100 mg/kg). For the same compound, the “Weight of Tumor” value is 1.46 ± 0.50 g in the data set on Ehrlich solid tumor [2] (200 mg/kg) and 1.70 ± 0.60 g in the data set on Ehrlich solid tumor [2] (400 mg/kg). For the same compound, the pIC50 in data set [3] (setting [6]) is 4.37.
For `CC(C)(CCCCOc1ccc(OCCCCCn2ccnc2)cc1)C(=O)Nc1ccccc1` [Example 53], in the data set with Ehrlich solid tumor [1] (setting [7]), the inhibition in vivo at 100 mg/kg was 49.3%. The pIC50 in data set [3] (setting [6]) is 5.37.
With `CC(C)(C#N)CCCCOc1ccc(OCCCCCn2ccnc2)cc1` [Example 55, 6-[p-[5-(1-imidazolyl)pentyloxy]phenoxy]-2,2-dimethylhexane-nitrile], the inhibition in vivo at 50 mg/kg in the data set on Ehrlich solid tumor [1] (50 mg/kg, i.p., days 1 through 9, tumor weight day 21) worked out at 63.1%. The negative logarithm of the IC50 (pIC50) in data set [3] (setting [6]) is 5.42.
For `NC(=O)CCCCCOc1ccc(OCCCCCn2ccnc2)cc1` [Example 56], the inhibition in vivo at 100 mg/kg in the data set with Ehrlich solid tumor [1] (setting [7]) amounted to 30.2%. The pIC50 in data set [3] (setting [6]) is 4.86.
In the case of `O=c1[nH]c(=O)n(C2CCCO2)cc1F` (stereo not drawn) [Tetrahydrofuryl-5-fluorouracil, reference compound], in data set [5] (100 mg/kg, p.o. (1-6 days)), the “Median Survival Day” value turned out to be 6.0 days, the “No. of 20-day Survivors” value was 0/10 and the “T/C (median survival)” value is 85.7%. For the same compound, in data set [5] (200 mg/kg, p.o. (1-6 days)), the “Median Survival Day” value amounted to 7.0 days, the “No. of 20-day Survivors” value is on record as 0/10 and the “T/C (median survival)” value came out at 100%. In addition, in the data set on mouse M5076 solid tumor (100 mg/kg), the “Growth Inhibition Rate” value was 14.8% and the “Weight of Tumor” value is reported as 0.52 ± 0.19 g. Also, in the data set on mouse M5076 solid tumor (200 mg/kg), the “Growth Inhibition Rate” value was 39.3% and the “Weight of Tumor” value stood at 0.37 ± 0.08 g.

The record behind these values is patent US4891432A, “Phenoxy imidazole compound” (Yamanouchi Pharmaceutical Co., Ltd., priority 1986, dated 1990).
